Measured values from PMC12670164, “In vitro and clinical data demonstrate negligible risk of drug–drug interactions with opelconazole, a novel inhaled antifungal agent” (Journal of Antimicrobial Chemotherapy, 2025).

Experiments:
CYP3A4 = CYP3A4 (Homo sapiens, UniProt P08684); assay: clinical
Description: The study documents were approved by an Independent Ethics Committee. Study participants provided written informed consent prior to any study procedures.
Screening occurred within 28 days prior to the first dosing day (Figure 1). […] On Days 1 and 15, participants received oral midazolam 7.5 mg and oral caffeine 180 mg together after food ingestion.
Morning doses of opelconazole on Day 2 and Day 15 were taken 30 min after food ingestion.
Primary PK parameters assessed for midazolam and its metabolites (1-OH-midazolam, 4-OH-midazolam), caffeine and opelconazole were Cmax and AUC, from time zero to t, where t is the time of the last quantifiable concentration (AUC(0−t); i.e., AUC(0−12) and AUC(0−24)). Secondary PK parameters were AUC(0−∞), Tmax, apparent t1/2 and accumulation ratio (RO) of opelconazole only.
For caffeine, midazolam and the metabolites of midazolam, the geometric mean ratio (GMR) of Day 15 estimates to those obtained on Day 1 was derived by fitting a linear mixed effect model with the log of the parameter as the response, visit as the fixed effect, and participant as the random effect.

CYP1A2 [1] = assay: clinical; settings: both, human, plasma, po, 180 mg, probe caffeine
Description: To adjust for any residual caffeine in plasma samples, the estimated contribution of residual, pre-dose caffeine was subtracted from the measured caffeine concentration to produce an ‘adjusted concentration.’ Residual caffeine concentrations were estimated from the baseline concentration and the measured elimination rate in individual participants.

CYP1A2 [2] = assay: CYP induction, mRNA endpoint, cryopreserved human hepatocytes; settings: human, 72 h
Description: The potential for opelconazole to act as an inducer of CYP isoforms CYP1A2, CYP2B6 and CYP3A4 was assessed in vitro using an mRNA endpoint across three donors in cryopreserved human hepatocytes. A drug is interpreted as an inducer if: (1) it increases mRNA expression of a CYP enzyme in a concentration-dependent manner and (2) the fold change of CYP mRNA expression relative to vehicle control is ≥2-fold at the drug’s expected hepatic concentrations.[23]
A cytotoxicity assessment using MTT was performed in one of the three donors used for the induction studies prior to dosing.

[3] = Day 1, oral midazolam 7.5 mg without opelconazole
[4] = Day 15, oral midazolam 7.5 mg after 14 days inhaled opelconazole 14.8 mg twice daily
[5] = both, human, in vivo, po, 7.5 mg

CYP3A4, sequence (P08684 whole entry): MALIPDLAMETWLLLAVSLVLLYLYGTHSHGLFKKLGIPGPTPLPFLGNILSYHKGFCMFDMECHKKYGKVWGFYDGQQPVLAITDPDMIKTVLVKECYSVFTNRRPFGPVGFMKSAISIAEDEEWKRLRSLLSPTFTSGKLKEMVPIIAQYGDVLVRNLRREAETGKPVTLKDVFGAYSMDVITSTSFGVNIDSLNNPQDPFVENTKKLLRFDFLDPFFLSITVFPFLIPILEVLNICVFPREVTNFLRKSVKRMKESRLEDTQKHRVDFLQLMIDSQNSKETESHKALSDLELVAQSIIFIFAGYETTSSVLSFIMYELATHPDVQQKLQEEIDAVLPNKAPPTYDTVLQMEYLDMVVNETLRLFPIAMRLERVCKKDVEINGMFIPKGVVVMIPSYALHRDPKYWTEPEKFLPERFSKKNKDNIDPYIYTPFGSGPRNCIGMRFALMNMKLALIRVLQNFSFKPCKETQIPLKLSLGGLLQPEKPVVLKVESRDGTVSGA

Row | Structure (SMILES) | AUC(0–24h), geometric mean (CYP3A4; [3]) | Cmax, geometric mean (CYP3A4; [3]) | AUC(0–24h), geometric mean (CYP3A4; [4]) | Cmax, geometric mean (CYP3A4; [4]) | also measured
1 | OCc1ncc2n1-c1ccc(Cl)cc1C(c1ccccc1F)=NC2 [1-OH-Midazolam, 1-OH-midazolam] | 72.8 ng·h/mL | 16.7 ng/mL | 60.9 ng·h/mL | 13.4 ng/mL | 
2 | Cc1ncc2n1-c1ccc(Cl)cc1C(c1ccccc1F)=NC2O (stereo not shown) [4-OH-Midazolam, 4-OH-midazolam] | 8.92 ng·h/mL | 1.97 ng/mL | 8.70 ng·h/mL | 1.78 ng/mL | 
3 | Cn1c(=O)c2c(ncn2C)n(C)c1=O [Caffeine, caffeine] |  |  |  |  | AUC(0-t) (CYP1A2 [1]): 33200 ng·h/mL; Cmax (CYP1A2 [1]): 3280 ng/mL
4 | Cc1ncc2n1-c1ccc(Cl)cc1C(c1ccccc1F)=NC2 [Midazolam, midazolam, reference compound] |  |  |  |  | AUC(0-t) (CYP3A4; [5]): 166 ng·h/mL; Cmax (CYP3A4; [5]): 35.1 ng/mL
5 | COc1ccc2[nH]c([S+]([O-])Cc3ncc(C)c(OC)c3C)nc2c1 (stereo not shown) [omeprazole, reference compound] |  |  |  |  | induction outcome of positive control relative to opelconazole (CYP1A2 [2]): > 30 fold
